Results from patent publication US20210094922A1, “Dyes for Analysis of Soluble Protein Aggregates or Misfolded Protein Oligomers” (The Penn State Research Foundation, priority 2018, published 2021).

What was measured:
SOD1(V31A)-Halo [1] = molecular target: SOD1(V31A)-Halo (UniProt P00441+P0A3G2, A155T/A167V/A172T/A224E/C128F/C176G/D78G/E160K/E257K/H272N/K175M/K195N/L47V/L88M/N227D/S58T/T264A/V32A/Y273L/Y87F); assay: In vitro heat-induced aggregation of purified SOD1(V31A)-Halo-4 conjugate; format: biochemical; parameters: made in house; host or cells: E. coli BL21 DE3* (pET29b; pBAD σ32-I54N co-expressed)
Experimental: (§1) (a) Purified SOD1(V31A)-Halo and Halo-Tag proteins (42 μM), both of which were conjugated with 4 (21 μM), were incubated at varying temperatures (25, 37, 38.9, 41.8, 45.6, 50.7, 54.5, 57.2, and 59° C.). As control samples, 4 (21 μM) was prepared in buffer, 1,4-dioxane, glycerol, BSA (2 mg/mL). Fluorescence intensity was recorded at Ex=530 nm/Em=600 nm. All readings were normalized to intensity of the Halo-Tag-4 conjugate at 25° C. Fluorescence of protein samples was also visualized via UV transilluminator. In addition, protein samples were centrifuged at 21,000 g for 30 min at 4° C. to analyze their insoluble fraction using fluorescence of 4 as signal on SDS-PAGE gel. […] This fluorescence was not originated from aggregation of Halo-Tag domain, as evidenced by the low fluorescence of the Halo-4 conjugate and lack of significant insoluble fraction at these temperatures. Error bars: standard error (n=3). (b) Purified SOD1(V31A)-Halo and Halo-Tag proteins ([…]) were conjugated with 4 (21 μM) and incubated at 54.5° C. Fluorescence was recorded using Agilent Carey Eclipse fluorescence spectrophotometer with temperature control. Buffer condition: 50 mM Tris-HCl, pH 7.5, 100 mM NaCl, 83 mM EDTA. Parameters for fluorescence measurement: 4 (Ea=530 nm/Em=600 nm).
(§2) (a) Purified SOD1(V31A)-Halo (42 μM) was conjugated with 4 (21 μM) and incubated at 54.5° C. Fluorescence was recorded using Agilent Carey Eclipse fluorescence spectrophotometer with temperature control. Turbidity was recorded using Agilent 300 UV-Vis spectrophotometer. Buffer condition: 50 mM Tris-HCl, pH 7.5, 100 mM NaCl, 83 mM EDTA. (b) Kinetics of fluorescence increases from the SOD1(V31A)-Halo-4 conjugate (red curve) was compared to the kinetics of protein misfolding (black curve) as measured by Tryptophan fluorescence change. Fluorescence was recorded using Agilent Carey Eclipse fluorescence spectrophotometer with temperature control. Experiments were carried out at 54.5° C. Parameters for fluorescence measurement: 4 (Ex=530 nm/Em=600 nm) and Trp (Ex=290 nm/Em=330 and 345 nm). Error bars: standard error (n=3).

SOD1(V31A)-Halo [2] = molecular target: SOD1(V31A)-Halo (Rhodococcus rhodochrous, UniProt P0A3G2, A155T/A167V/A172T/A224E/C128F/C176G/D78G/E160K/E257K/H272N/K175M/K195N/L47V/L88M/N227D/P291S/S58T/T264A/Y273L/Y87F); assay: as above; format: biochemical; parameters: made in house; host or cells: E. coli BL21 DE3* (pET29b; pBAD σ32-I54N co-expressed)
Experimental: as §1, §2

Htt-97Q-Halo = molecular target: T1, Htt-97Q-Halo (Homo sapiens, UniProt P42858); assay: AggTag imaging of Htt-Halo aggregation in HEK293T cells; format: cell-based; settings: non-specific binding control
T1 construct: using the Huntingtin exon 1 protein (Htt) with expansion of a polyglutamine tract within its N-terminal domain; expressed in transfected cells; host or cells: HEK293T
Experimental: (a) The dual-probe live cell imaging experiment. Halo-tag fusion proteins were labeled in the presence of both the non-fluorogenic coumarin ligand (1 μM) and 4 (1 µM). The newly synthesized Htt-Halo proteins were equally labeled with either the coumarin ligand or 4. The coumarin ligand is fluorescent both before and after aggregation of Htt-Halo. By contrast, signal of 4 exclusively arises from Htt-Halo aggregates. (b) Dual probes labeling confirms expression of proteins. The Htt Q0-Halo and Htt Q97-Halo proteins were transiently transfected and expressed in HEK293T cells for 24 h, in the presence of 1 μM coumarin Halo-Tag ligand and 1 μM of 4. In cells expressing Htt Q97-Halo proteins, punctate structures in the coumarin channel coincided with the turn-on fluorescence of 4. […] (c) The Htt Q97 protein, without a Halo-Tag, was transiently transfected and expressed in HEK293T cells for 24 h, in the presence of 1 μM of 4. No turn-on fluorescence of 4 was found. Red: fluorescence from the SOD1(V31A)-Halo-4 conjugate. Blue: coumarin Halo-Tag ligand in (a) or nucleus stained by Hoechst 33342 in (b). Scale bar: 10 μm. (d) Fluorescent intensity of cell lysates from samples as represented in FIG. 4d. Error bars: standard error (n=3).
Confocal microscope imaging. The HEK293T cells were seeded at 25% confluency 24 h prior to transfection in poly-D-lysine coated 35 mm glass bottom dishes (MatTek Corporation). Cells were grown in DMEM media supplemented with 10% FBS and Penicillin-Streptomycin antibiotics until they reached 50-60% confluency. Transfection was carried out using X-tremeGene™ 9 DNA transfection reagent (Roche) according to the manufacturer's instructions. Proteins were expressed for 24 h prior to analyses. To label proteins with Halo-Tag fusion, protein expression was carried out in the presence of 1 μM 4 or 1 μM TMR Halo-Tag ligand to form covalent conjugate with the Halo-Tag domain. For a dual-probe labeling scheme, 1 μM 4 and 1 μM coumarin Halo-Tag ligand to simultaneously form covalent conjugate with the Halo-Tag domain.
To wash off unbound Halo ligands, the cells were washed extensively by replacing media with fresh DMEM and incubating for 30 min at 37° C. For confocal fluorescence imaging with either 4-labeled Halo fusion, TMR-labeled Halo fusion, EGFP fusion, or mCherry fusion proteins, DMEM media was replaced with FluoroBrite™ DMEM media (ThermoFisher) supplemented with 10% FBS, and Hoechst 33342 (0.1 μg/mL). For confocal fluorescence imaging with either dual-probe labeled Halo fusion with 4 and coumarin ligand, DMEM media was replaced with FluoroBrite™ DMEM media (ThermoFisher) supplemented with 10% FBS. The samples were incubated for 30 min prior to imaging. Media was replaced with fresh FluoroBrite™ DMEM media (ThermoFisher) supplemented with 10% FBS prior to imaging. Confocal images were obtained using Olympus FluoView™ FV1000 confocal microscope. The EGFP fluorescence was visualized using blue argon (488 nm) laser. Nuclear staining and coumarin fluorescence was visualized using violet laser (405 nm). Fluorescence of TMR and 4 were visualized using green HeNe laser (543 nm).

SOD1(V31A)-Halo (UniProt P00441+P0A3G2, A155T/A167V/A172T/A224E/C128F/C176G/D78G/E160K/E257K/H272N/K175M/K195N/L47V/L88M/N227D/S58T/T264A/V32A/Y273L/Y87F), sequence (P00441+P0A3G2 fused with the stated changes): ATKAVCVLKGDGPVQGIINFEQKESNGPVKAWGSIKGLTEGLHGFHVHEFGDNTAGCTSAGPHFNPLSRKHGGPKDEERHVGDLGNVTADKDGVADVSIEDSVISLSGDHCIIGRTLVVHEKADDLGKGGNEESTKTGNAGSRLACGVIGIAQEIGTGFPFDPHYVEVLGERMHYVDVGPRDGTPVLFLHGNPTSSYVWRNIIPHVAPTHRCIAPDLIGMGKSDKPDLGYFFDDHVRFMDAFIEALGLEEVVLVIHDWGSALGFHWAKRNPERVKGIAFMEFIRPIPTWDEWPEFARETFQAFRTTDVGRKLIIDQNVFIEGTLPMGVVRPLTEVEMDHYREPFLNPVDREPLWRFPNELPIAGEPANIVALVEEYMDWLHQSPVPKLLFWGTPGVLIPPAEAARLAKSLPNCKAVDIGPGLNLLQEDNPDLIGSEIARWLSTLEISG
T1 sequence (P42858 with tags, fused parts or gaps): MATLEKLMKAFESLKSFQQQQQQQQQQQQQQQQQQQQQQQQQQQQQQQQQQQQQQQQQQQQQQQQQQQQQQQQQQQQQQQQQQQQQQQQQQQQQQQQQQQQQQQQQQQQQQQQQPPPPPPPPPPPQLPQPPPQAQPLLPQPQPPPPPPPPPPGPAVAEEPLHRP
SOD1(V31A)-Halo (Rhodococcus rhodochrous, UniProt P0A3G2, A155T/A167V/A172T/A224E/C128F/C176G/D78G/E160K/E257K/H272N/K175M/K195N/L47V/L88M/N227D/P291S/S58T/T264A/Y273L/Y87F), sequence (P0A3G2 other isoform, or with tags, fused parts or gaps with the stated changes): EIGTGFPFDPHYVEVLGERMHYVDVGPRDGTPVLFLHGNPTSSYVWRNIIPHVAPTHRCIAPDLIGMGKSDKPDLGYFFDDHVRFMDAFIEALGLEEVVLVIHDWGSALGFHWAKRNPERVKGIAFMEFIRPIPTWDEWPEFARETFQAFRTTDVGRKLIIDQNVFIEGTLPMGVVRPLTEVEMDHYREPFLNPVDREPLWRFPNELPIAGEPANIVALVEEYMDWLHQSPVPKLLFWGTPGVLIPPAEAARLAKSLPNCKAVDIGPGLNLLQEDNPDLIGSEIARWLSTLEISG

Q: For `CN(C)c1ccc(/C=C2N=C(/C=C/c3ccc(N(CCO)CCO)cc3)N(CC(=O)N[C@H]3CC[C@H](C(=O)NCCOCCOCCCCCCCl)CC3)C\2=O)cc1` [Compound 4, (1r,4r)-4-(2-((Z)-2-((E)-4-(bis(2-hydroxyethyl)amino)styryl)-4-(4-(dimethylamino)benzylidene)-5-oxo-4,5-dihydro-1H-imidazol-1-yl)acetamido)-N-(2-(2-((6-chlorohexyl)oxy)ethoxy)ethyl)cyclohexanecarboxamide], which “fluorescence of the SOD1(V31A)-Halo-4 conjugate under heat” value (SOD1(V31A)-Halo [1]) is on record?
A: Its value is “increased in the absence of insoluble protein aggregates”.

Q: And the “kinetics of fluorescence increase versus turbidity” value (SOD1(V31A)-Halo [1]; 54.5° C.)?
A: The value was “much faster than the kinetics of turbidity”.

Q: And the “kinetics of fluorescence versus protein misfolding” value (SOD1(V31A)-Halo [1]; 54.5° C.)?
A: Its value is “coincided with the kinetics of protein misfolding”.

Q: What about the “fluorescence of the Halo-4 conjugate control under heat” value (SOD1(V31A)-Halo [2]) of the same molecule?
A: Its value is “remained non-fluorescent under all heat conditions”.

Q: What about the “fluorescence in cells expressing Htt-97Q without Halo-Tag” value (Htt-97Q-Halo) of the same molecule?
A: Its value is “no fluorescent signal”.
